This is an account of results in US20130210846A1, “USE OF NOVEL PAN-CDK INHIBITORS FOR TREATING TUMORS” (BAYER INTELLECTUAL PROPERTY GMBH, priority 2010, published 2013).

The subject of experiment [1] is HeLa-MaTu. Nature of the experiment: Proliferation assay HeLa-MaTu. The experiment is classed as cell-based, human. To be noted: Homo sapiens, 96 h, cervix carcinoma, 4 days, crystal violet. The method, boiled down:
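Human tumour cells plated 1000 to 5000 cells/well, treated after 24 h with compound (0.01-30 μM, 0.5% DMSO) for 4 days. Growth by crystal violet staining read at 595 nm, normalised to zero-point plate and untreated cells; IC50 from 4-parameter fit.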

Experiment [2] relates to 786-O. Nature of the experiment: Proliferation assay 786-O. The experiment is classed as cell-based. To be noted: Homo sapiens, 786-0, 96 h, kidney carcinoma, 4 days, crystal violet. As to the method: (§1) Cultivated human tumor cells (originally obtained from ATCC, HeLa-MaTu and HeLa-MaTu-ADR, originally obtained from Epo GmbH, Berlin, Germany) were plated at a density of 1000 to 5000 cells/measuring point, depending on the growth rate of the cell line, in a 96-well multititer plate in 200 μl of growth medium (DMEM/HAMS F12, 2 mM L-glutamine, 10% fetal calf serum). After 24 hours the cells of one plate (zero-point plate) were stained with crystal violet (see below), whereas the medium of the other plates was replaced with fresh culture medium (200 μl), to which the test substances had been added at various concentrations (0 μM, and in the range 0.01-30 μM; the final concentration of the solvent dimethyl sulfoxide was 0.5%). The cells were incubated for 4 days in the presence of the test substances. Cellular proliferation was determined by staining the cells with crystal violet: the cells were fixed by adding 20 μl/measuring point of an 11% glutaraldehyde solution for 15 min at room temperature. After washing the fixed cells with water three times, the plates were dried at room temperature. The cells were stained by adding 100 μl/measuring point of a 0.1% crystal violet solution (pH adjusted to pH3 by adding acetic acid). After washing the stained cells with water three times, the plates were dried at room temperature. The dye was dissolved by adding 100 μl/measuring point of a 10% acetic acid solution. The extinction was determined photometrically at a wavelength of 595 nm. The percentage change in cell growth was calculated by standardization of the measured values to the extinction values of the zero-point plate (=0%) and the extinction of the untreated (0 μM) cells (=100%). The measured data were standardized to 0% inhibition (cell proliferation without inhibitor) and 100% inhibition (zero-point plate). The IC50 values were determined by means of a 4-parameter fit using the company's own software.
The substances were examined in the following cell lines which, in an exemplary manner, represent the stated indications: […]

The subject of experiment [3] is MDA-MB231 human breast tumor cells. Nature of the experiment: MDA-MB231 human breast tumor model. The experiment is classed as in vivo, female NMRI nude mice. The text has this: (§2) Tumor cells grown in cell culture were implanted subcutaneously in the flank of female or male NMRI nude mice. The treatment was started as soon as the tumors had grown to a size of approx. 20 mm^2 The study was ended as soon as the tumors in one of the groups reached a size of approx. 150 mm^2.
(§3) Vehicle group: treatment with solubilizer (40% PEG400/60% water)
(§4) The studies were designed for determining the initial response of the human tumor model to the treatment with the Exemplary compound 2-SI-2. Tumor growth inhibition in percent (TGI) was either calculated at the end of the studies from the tumor weights (TGITW) using the formula 100×[1−(tumor weight of the treatment group/tumor weight of the vehicle group)], or on the day the vehicle group had to be ended from the tumor areas (TGITA) using the formula 100×[1−(tumor area of the treatment group on the day of the measurement−tumor area of the treatment group prior to treatment)/(tumor area of the vehicle group on the day of the measurement−tumor area of the vehicle group prior to treatment)]. In the case of a tumor growth inhibition of more than 50%, the treatment was considered to have been effective.
Efficacy in the MDA-MB231 human breast tumor model MDA-MB231.
MDA-MB231 human breast tumor cells implanted into female NMRI nude mice.
• a) 0.20 mg/ml of Example 2-SI-2 in 40% (v/v) PEG 400 in water • b) 0.25 mg/ml of Example 2-SI-2 in 40% (v/v) PEG 400 in water • c) 0.15 mg/ml of Example 2-SI-2 in 40% (v/v) PEG 400 in water • d) 0.17 mg/ml of Example 2-SI-2 in 40% (v/v) PEG 400 in water
• a) 2.0 mg/kg (6.0 mg/m^2), 1× per day. • b) 2.5 mg/kg (7.5 mg/m^2), 2× per day on 2 successive days, followed by 5 treatment-free days. • c) 1.5 mg/kg (4.5 mg/m^2), 2× per day on 3 successive days, followed by 4 treatment-free days. • d) 1.7 mg/kg (5.1 mg/m^2), 2× per day on 3 successive days, followed by 4 treatment-free days.

Experiment [4] relates to HeLa-MaTu-ADR multidrug-resistant human cervix carcinoma cells. In words: HeLa-MaTu-ADR Res. xenograft model. In kind it is in vivo, female NMRI nude mice.
Source text: as §2, §3, §4
Efficacy in the HeLa-MaTu-ADR Res. xenograft model
HeLa-MaTu-ADR multidrug-resistant human cervix carcinoma cells implanted into female NMRI nude mice.
Formulation • a) 0.15 mg/ml, 0.20 mg/ml of Example 2-SI-2 in 40% (v/v) PEG 400 in water • b) 0.20 mg/ml, 0.25 mg/ml of Example 2-SI-2 in 40% (v/v) PEG 400 in water
• a) 1.5 and 2.0 mg/kg (4.5 and 6.0 mg/m^2), 1× per day • b) 2.0 and 2.5 mg/kg (6.0 and 7.5 mg/m^2), 2× per day on 2 successive days, followed by 5 treatment-free days

For experiment [5], the system named is NCI-H82 human small-cell lung tumor cells. Nature of the experiment: NCI-H82 human small-cell lung tumor model. The experiment is classed as in vivo, female NMRI nude mice. To be noted: NCI-H82; a) 1.7 mg/kg oral 2× per day on 3 successive days, followed by 4 treatment-free days.
Source text: as §2, §3, §4
Efficacy in the NCI-H82 human small-cell lung tumor model.
NCI-H82 human small-cell lung tumor cells implanted into female NMRI nude mice.
• a) 0.17 mg/ml of Example 2-SI-2 in 40% (v/v) PEG 400 in water […]

The test system of experiment [6] is MDA-MB 231. In words: Proliferation assay MDA-MB 231. In kind it is cell-based. To be noted: Homo sapiens, 96 h; MDA-MB 231, estrogen receptor-negative mamma carcinoma; 4 days, crystal violet. As to the method:
as §1, with “After washing the fixed cells with water three times, the plates were dried at room temperature. The cells were stained by adding 100 μl/measuring point of a 0.1% crystal violet solution (pH adjusted to pH3 by adding acetic acid). After washing the stained cells with water three times, the plates were dried at room temperature. The dye was dissolved by adding 100 μl/measuring point of a 10% acetic acid solution.” left out, “The measured data were standardized to 0% inhibition (cell proliferation without inhibitor) and 100% inhibition (zero-point plate).” left out, “software. […]” for “software.”

Experiment [7] relates to A375. In words: Proliferation assay A375. In kind it is cell-based. To be noted: Homo sapiens, A-375, 96 h; A375, skin: melanoma; 4 days, crystal violet. The procedure: as §1, with “After washing the fixed cells with water three times, the plates were dried at room temperature. The cells were stained by adding 100 μl/measuring point of a 0.1% crystal violet solution (pH adjusted to pH3 by adding acetic acid). After washing the stained cells with water three times, the plates were dried at room temperature. The dye was dissolved by adding 100 μl/measuring point of a 10% acetic acid solution.” left out, “The measured data were standardized to 0% inhibition (cell proliferation without inhibitor) and 100% inhibition (zero-point plate).” left out, “software. […]” for “software.”

Experiment [8] has as its system NCI-H69. Nature of the experiment: Proliferation assay NCI-H69. The experiment is classed as cell-based. To be noted: Homo sapiens, 96 h; NCI-H69, small-cell bronchial carcinoma; 4 days, crystal violet. As to the method:
as §1, with “After washing the fixed cells with water three times, the plates were dried at room temperature. The cells were stained by adding 100 μl/measuring point of a 0.1% crystal violet solution (pH adjusted to pH3 by adding acetic acid). After washing the stained cells with water three times, the plates were dried at room temperature. The dye was dissolved by adding 100 μl/measuring point of a 10% acetic acid solution.” left out, “The measured data were standardized to 0% inhibition (cell proliferation without inhibitor) and 100% inhibition (zero-point plate).” left out, “software. […]” for “software.”

Experiment [9] has as its system A2780. Nature of the experiment: Proliferation assay A2780. The experiment is classed as cell-based. To be noted: Homo sapiens, 96 h; A2780, ovarial carcinoma; 4 days, crystal violet. As to the method:
as §1, with “After washing the fixed cells with water three times, the plates were dried at room temperature. The cells were stained by adding 100 μl/measuring point of a 0.1% crystal violet solution (pH adjusted to pH3 by adding acetic acid). After washing the stained cells with water three times, the plates were dried at room temperature. The dye was dissolved by adding 100 μl/measuring point of a 10% acetic acid solution.” left out, “The measured data were standardized to 0% inhibition (cell proliferation without inhibitor) and 100% inhibition (zero-point plate).” left out, “software. […]” for “software.”

[10] abbreviates: HeLa-MaTu-ADR; b) 2.5 mg/kg oral 2× per day on 2 successive days, followed by 5 treatment-free days.

Consider `C[C@@H](O)[C@@H](C)Nc1nc(Nc2ccc(S(=N)(=O)C3CC3)cc2)ncc1C(F)(F)F` (mixture of isomers) [Example 4-SI-1, (RS)—S-Cyclopropyl-S-(4-{[4-{[(1R,2R)-2-hydroxy-1-methylpropyl]amino}-5-(trifluoromethyl)-pyrimidin-2-yl]amino}phenyl)sulfoximide], for which the results for the IC50 in experiment [1] and in experiment [2] were 10 nM and 30 nM, respectively.

For `C[C@@H](O)[C@@H](C)Oc1nc(Nc2ccc(S(C)(=N)=O)cc2)ncc1C(F)(F)F` (mixture of isomers) [Example 2-SI-2, (RS)—S-(4-{[4-{[(1R,2R)-2-Hydroxy-1-methylpropyl]oxy}-5-(trifluoromethyl)pyrimidin-2-yl]-amino}phenyl)-S-methylsulfoximide], in experiment [3] (MDA-MB231; a) 2.0 mg/kg oral 1× per day), the “TGITA (tumor growth inhibition from tumor areas, measured on the day the vehicle group was ended)” value is 92%. For the same compound, the “TGITA (tumor growth inhibition from tumor areas)” value in experiment [3] (MDA-MB231; b) 2.5 mg/kg oral 2× per day on 2 successive days, followed by 5 treatment-free days) stood at 76%; in experiment [3] (MDA-MB231; c) 1.5 mg/kg oral 2× per day on 3 successive days, followed by 4 treatment-free days), 70%; in experiment [3] (MDA-MB231; d) 1.7 mg/kg oral 2× per day on 3 successive days, followed by 4 treatment-free days), 70%. The figures for the “TGITW (tumor growth inhibition from tumor weights)” value in [4] (HeLa-MaTu-ADR; a) 2.0 mg/kg oral 1× per day), in experiment [4] (setting [10]) and in experiment [5] were 97%, 90% and 86%, respectively. In addition, the tumor regression observation entry in experiment [4] (setting [10]) was “signs of tumor regression”.

Take `C[C@@H](O)[C@@H](C)Oc1nc(Nc2ccc(S(C)(=N)=O)cc2)ncc1C(F)(F)F` (single isomer, unassigned) [Example 2-SI-2]: the IC50 was found to be 16 nM in [6]; 15 nM in [7]; 37 nM in experiment [8]; 3 nM in [9]; 22 nM in [2].
